For 23 substances, normalised inhibition (eCFP-eYFP dual reporter) results are on record in the OligoGym collection.

Oligonucleotides are written 5' to 3', each unit as a sugar letter and its base; * is a phosphorothioate linkage, no mark a phosphodiester; rarer units and linkages stand in square brackets, end groups in braces. Plain capitals give the bases only. Oligonucleotides are given in HELM: sugar(base)linkage, 5' to 3'; d 2'-deoxyribose, r ribose, m 2'-O-methylribose, p phosphate. ss, as = sense and antisense strand; d = 2'-deoxy (DNA); r = 2'-OH (RNA)
Also: test concentration or dose not given here.

The first data set concerns the target CDC34. The data set is described as follows: reporter assay of Huesken 2005. To be noted: siRNA. For orientation: A reporter such as luciferase makes a cellular process visible.
In turn, “RNA1{r(G)p.r(G)p.r(A)p.r(A)p.r(G)p.r(G)p.r(A)p.r(U)p.r(C)p.r(G)p.r(G)p.r(G)p.r(A)p.r(G)p.r(U)p.r(A)p.r(C)p.r(A)p.r(C)p.d(T)p.d(T)}|RNA2{r(G)p.r(U)p.r(G)p.r(U)p.r(A)p.r(C)p.r(U)p.r(C)p.r(C)p.r(C)p.r(G)p.r(A)p.r(U)p.r(C)p.r(C)p.r(U)p.r(U)p.r(C)p.r(C)p.d(C)p.d(C)}$$$RNA1{StrandType:ss}|RNA2{StrandType:as}$” registered a normalised inhibition (eCFP-eYFP dual reporter) of 56.5%.
Same read-out and setting: the same measure for “RNA1{r(G)p.r(G)p.r(A)p.r(G)p.r(U)p.r(A)p.r(C)p.r(A)p.r(C)p.r(A)p.r(G)p.r(A)p.r(C)p.r(A)p.r(U)p.r(C)p.r(A)p.r(U)p.r(C)p.d(T)p.d(T)}|RNA2{r(G)p.r(A)p.r(U)p.r(G)p.r(A)p.r(U)p.r(G)p.r(U)p.r(C)p.r(U)p.r(G)p.r(U)p.r(G)p.r(U)p.r(A)p.r(C)p.r(U)p.r(C)p.r(C)p.d(C)p.d(G)}$$$RNA1{StrandType:ss}|RNA2{StrandType:as}$”: 76.6%; for “RNA1{r(G)p.r(G)p.r(G)p.r(C)p.r(G)p.r(G)p.r(C)p.r(U)p.r(A)p.r(C)p.r(U)p.r(U)p.r(C)p.r(A)p.r(A)p.r(G)p.r(G)p.r(C)p.r(G)p.d(T)p.d(T)}|RNA2{r(C)p.r(G)p.r(C)p.r(C)p.r(U)p.r(U)p.r(G)p.r(A)p.r(A)p.r(G)p.r(U)p.r(A)p.r(G)p.r(C)p.r(C)p.r(G)p.r(C)p.r(C)p.r(C)p.d(T)p.d(C)}$$$RNA1{StrandType:ss}|RNA2{StrandType:as}$”: 29.8%.
On the same count and under the same terms, the same measure for “RNA1{r(G)p.r(G)p.r(G)p.r(G)p.r(C)p.r(U)p.r(G)p.r(C)p.r(A)p.r(G)p.r(G)p.r(A)p.r(A)p.r(G)p.r(A)p.r(G)p.r(C)p.r(C)p.r(G)p.d(T)p.d(T)}|RNA2{r(C)p.r(G)p.r(G)p.r(C)p.r(U)p.r(C)p.r(U)p.r(U)p.r(C)p.r(C)p.r(U)p.r(G)p.r(C)p.r(A)p.r(G)p.r(C)p.r(C)p.r(C)p.r(C)p.d(T)p.d(T)}$$$RNA1{StrandType:ss}|RNA2{StrandType:as}$”: 47.6%; for “RNA1{r(G)p.r(G)p.r(U)p.r(G)p.r(G)p.r(A)p.r(C)p.r(G)p.r(C)p.r(G)p.r(G)p.r(A)p.r(G)p.r(C)p.r(G)p.r(U)p.r(G)p.r(A)p.r(C)p.d(T)p.d(T)}|RNA2{r(G)p.r(U)p.r(C)p.r(A)p.r(C)p.r(G)p.r(C)p.r(U)p.r(C)p.r(C)p.r(G)p.r(C)p.r(G)p.r(U)p.r(C)p.r(C)p.r(A)p.r(C)p.r(C)p.d(T)p.d(T)}$$$RNA1{StrandType:ss}|RNA2{StrandType:as}$”: 53.4%.
Same read-out and setting: next, “RNA1{r(U)p.r(G)p.r(A)p.r(U)p.r(C)p.r(U)p.r(C)p.r(C)p.r(C)p.r(U)p.r(C)p.r(C)p.r(U)p.r(G)p.r(A)p.r(A)p.r(C)p.r(G)p.r(A)p.d(T)p.d(T)}|RNA2{r(U)p.r(C)p.r(G)p.r(U)p.r(U)p.r(C)p.r(A)p.r(G)p.r(G)p.r(A)p.r(G)p.r(G)p.r(G)p.r(A)p.r(G)p.r(A)p.r(U)p.r(C)p.r(A)p.d(C)p.d(A)}$$$RNA1{StrandType:ss}|RNA2{StrandType:as}$”: 70%.
The substance “RNA1{r(U)p.r(G)p.r(G)p.r(C)p.r(A)p.r(C)p.r(C)p.r(C)p.r(U)p.r(A)p.r(A)p.r(C)p.r(A)p.r(U)p.r(C)p.r(U)p.r(A)p.r(C)p.r(G)p.d(T)p.d(T)}|RNA2{r(C)p.r(G)p.r(U)p.r(A)p.r(G)p.r(A)p.r(U)p.r(G)p.r(U)p.r(U)p.r(A)p.r(G)p.r(G)p.r(G)p.r(U)p.r(G)p.r(C)p.r(C)p.r(A)p.d(C)p.d(A)}$$$RNA1{StrandType:ss}|RNA2{StrandType:as}$” showed a normalised inhibition (eCFP-eYFP dual reporter) of 25.1%.
Same read-out and setting: next, “RNA1{r(U)p.r(G)p.r(G)p.r(C)p.r(C)p.r(G)p.r(A)p.r(G)p.r(U)p.r(A)p.r(C)p.r(U)p.r(G)p.r(C)p.r(G)p.r(U)p.r(G)p.r(A)p.r(A)p.d(T)p.d(T)}|RNA2{r(U)p.r(U)p.r(C)p.r(A)p.r(C)p.r(G)p.r(C)p.r(A)p.r(G)p.r(U)p.r(A)p.r(C)p.r(U)p.r(C)p.r(G)p.r(G)p.r(C)p.r(C)p.r(A)p.d(G)p.d(C)}$$$RNA1{StrandType:ss}|RNA2{StrandType:as}$”: 65.2%.

A further data set deals with UBE2L3. The data set is described as follows: reporter assay of Huesken 2005. To be noted: siRNA.
“sense rArArArCrArArArGrArUrCrUrArUrCrArCrCrCdTdT / antisense rGrGrGrUrGrArUrArGrArUrCrUrUrUrGrUrUrUdTdA” yielded a normalised inhibition (eCFP-eYFP dual reporter) of 50.1%.
On the same count and under the same terms, next, “sense rArArCrCrGrArCrCrArArGrUrArArUrCrCrArGdTdT / antisense rCrUrGrGrArUrUrArCrUrUrGrGrUrCrGrGrUrUdTdT”: 66.6%; “sense rArArCrUrGrGrArArGrCrCrArGrCrArArCrCrAdTdT / antisense rUrGrGrUrUrGrCrUrGrGrCrUrUrCrCrArGrUrUdTdT”: 71.8%; “sense rArArGrCrCrArGrCrArArCrCrArArArArCrCrGdTdT / antisense rCrGrGrUrUrUrUrGrGrUrUrGrCrUrGrGrCrUrUdCdC”: 41.7%.
Same read-out and setting: the same measure for “sense rArCrArUrCrGrArCrGrArArArArGrGrGrGrCrAdTdT / antisense rUrGrCrCrCrCrUrUrUrUrCrGrUrCrGrArUrGrUdTdT”: 64.5%.
On the same count and under the same terms, the same measure for “sense rArCrCrArArGrUrArArUrCrCrArGrUrCrCrCrUdTdT / antisense rArGrGrGrArCrUrGrGrArUrUrArCrUrUrGrGrUdCdG”: 87.3%; for “sense rArGrArUrCrUrArUrCrArCrCrCrArArArCrArUdTdT / antisense rArUrGrUrUrUrGrGrGrUrGrArUrArGrArUrCrUdTdT”: 73.1%.
In turn, “sense rArGrCrArCrCrCrGrCrUrUrCrGrGrGrCrUrGrAdTdT / antisense rUrCrArGrCrCrCrGrArArGrCrGrGrGrUrGrCrUdCdA” registered a normalised inhibition (eCFP-eYFP dual reporter) of 37.6%.
Still for that read-out and setting: the same measure for “sense rArGrCrCrUrGrArGrCrArCrCrCrGrCrUrUrCrGdTdT / antisense rCrGrArArGrCrGrGrGrUrGrCrUrCrArGrGrCrUdGdG”: 46.3%.
The same measure, in the same setting: next, “sense rArUrCrGrArCrGrArArArArGrGrGrGrCrArGrGdTdT / antisense rCrCrUrGrCrCrCrCrUrUrUrUrCrGrUrCrGrArUdGdT”: 32%.
The same measure, in the same setting: the same measure for “sense rArUrUrGrArCrUrUrGrGrCrArArGrGrGrCrUrUdTdT / antisense rArArGrCrCrCrUrUrGrCrCrArArGrUrCrArArUdAdA”: 58.7%.
As for “sense rArUrUrUrArArArArCrArArArGrArUrCrUrArUdTdT / antisense rArUrArGrArUrCrUrUrUrGrUrUrUrUrArArArUdGdT”, the normalised inhibition (eCFP-eYFP dual reporter) turned out to be 65.5%.
Same read-out and setting: the same measure for “sense rCrArArArArCrCrGrArCrCrArArGrUrArArUrCdTdT / antisense rGrArUrUrArCrUrUrGrGrUrCrGrGrUrUrUrUrGdGdT”: 56.2%.
For the substance “sense rCrArArArGrArUrCrUrArUrCrArCrCrCrArArAdTdT / antisense rUrUrUrGrGrGrUrGrArUrArGrArUrCrUrUrUrGdTdT”, the normalised inhibition (eCFP-eYFP dual reporter) amounted to 82.8%.
The substance “sense rCrArArCrCrArArArArCrCrGrArCrCrArArGrUdTdT / antisense rArCrUrUrGrGrUrCrGrGrUrUrUrUrGrGrUrUrGdCdT” had a normalised inhibition (eCFP-eYFP dual reporter) of 87%.
